The values that follow come from patent publication US20090226500A1, “SUTURES AND ANTI-SCARRING AGENTS” (Angiotech Pharmaceuticals, Inc, priority 2006, published 2009).

The test system of assay [1] is IL-1β production by THP-1 cells. Briefly: IL-1β production by macrophages. The assay is classed as cell-based, human. The settings on record: Homo sapiens, read-out: IC50 IL-1β production.
The test system of assay [2] is MCP-1 production by THP-1 cells. Briefly: MCP-1 production by macrophages. The assay is classed as cell-based, human. Particulars: Homo sapiens; THP-1 cells stimulated with opsonized zymosan, 24 hours; read-out: IC50 MCP-1 production. In short, it runs like this:
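THP-1 cells (1×10^6/well, 10% FCS) stimulated with 1 mg/ml serum-opsonized zymosan plus compound added from DMSO stocks at 1/1000, 24 h at 37° C. MCP-1 in supernatants quantified by sandwich ELISA (TMB read-out) against a recombinant human MCP-1 standard curve, triplicates, background-subtracted.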

Where two headings read alike, the source gives them in different places.

For the compound `CC1=C(O)C(=O)C=C2C1=CC=C1[C@@]2(C)CC[C@@]2(C)[C@@H]3C[C@](C)(C(=O)O)CC[C@]3(C)CC[C@]12C` [celastrol], the IC50 worked out at 23 nM in assay [1] (THP-1, 24 h) and 421 nM in assay [2].

Take `COc1c(C)c2c(c(O)c1C/C=C(\C)CCC(=O)O)C(=O)OC2` [mycophenolic acid]: the IC50 came to 2890 nM in assay [1] (THP-1 cells stimulated with opsonized zymosan, 24 hours) and 764 nM in assay [2].

In general, IC50 refers to the concentration at which inhibition is half-maximal.
